Test results as given in US20240197728A1, “METHODS AND PHARMACEUTICAL COMPOSITIONS FOR TREATING REFRACTORY EPILEPSY” (INSERM (INSTITUT NATIONAL DE LA SANTÉ ET DE LA RECHERCHE …, priority 2021, published 2024).

Experiments:
[1] = tested on: synaptic GABAA receptors; assay: Miniature inhibitory postsynaptic currents (mIPSCs) in hippocampal neurons; type: cell-based, rat
[2] = tested on: SPAK; assay: Immunoblot of SPAK phosphorylation and expression in hippocampo-cortical slices; type: cell-based, rat; details: vs DMSO
Protocol: For all experiments on hippocampal cultures, neurons were pre-incubated for 2 hours with either DMSO, PCPZ or CLP257 in a CO2 incubator set at 37° C. Drugs were added directly to the culture medium. For electrophysiology experiments, neurons were also recorded in presence of these drugs in the bath. For biochemistry experiments on rat hippocampo-cortical slices, slices were incubated with either DMSO (vehicle), CLP257, PCPZ, WNK463 or sodium orthovanadate for 2 hours in interface chambers set at 37° C. For human tissue experiments, slices were pre-incubated with either DMSO, CLP257 or PCPZ for 2 hours in interface chambers set at 37° C. and then also recorded in presence of these compounds.
8-weeks old Sprague Dawley male rats were anesthetized by intraperitoneal ketamine/xylazine injection (120/10 mg/kg) and perfused transcardially with ice-cold (0-4° C.), oxygenated solution (O2/CO2 95/5%), containing (in mM): N-methyl-d-glucamine 93, KCl 2.5, NaH2PO4 1.2, NaHCO330, HEPES 20, D-glucose 20, ascorbic acid 5, sodium pyruvate 3, MgSO4 10 and CaCl2) 0.5 (300-310 mOsm, pH7.4). Brains were removed and transverse hippocampo-cortical slices (400 m thick) were prepared in the same solution using a vibratome (HM650V, Microm). Slices were then incubated for 2-hours with DMSO, the KCC2 enhancers (CLP257, PCPZ, WNK43) or sodium orthovanadate in an interface chamber containing artificial cerebrospinal fluid (ACSF) composed of (in mM): D-glucose 10, KCl 3.5, NaHOC3 26, NaH2PO4 1.25, NaCl 126, CaCl2) 1.6 and MgCl2 1.2 (290 mOsm), equilibrated with 5% CO2 in 95% 02. After the treatments, slices were washed with cold PBS, instantaneously frozen with liquid nitrogen and stored at −80° C.
Slices were mechanically lysed on ice, using a 2 mL Dounce, in a buffer containing (in mM): Tris/HCl, pH 7.5 50, EGTA 1, EDTA 1, sodium orthovanadate 1, sodium-B-glycerophosphate 10, sodium fluoride 50, sodium pyrophosphate 5, sucrose 270, benzamidine 1, phenylmethylsulfonyl fluoride 2, Triton […], (v/v) 2-mercaptoethanol 0.1% and protease inhibitors (Roche). After complete homogenization, samples were centrifuged (16,000×g at 4° C. for 10 min) and the supernatant was collected. Protein quantification was done using Pierce BCA Protein Assay kit (Thermo Scientific) with BSA as standard.
Samples were subjected to electrophoresis on polyacrylamide gradient gels (4-12% bis-tris gels) and transferred to nitrocellulose membranes. Membranes were rinsed with TBS-tween solution (TBST; Invitrogen) and blocked with 5% (w/v) skim milk. […] Fluorescence was detected and the relative intensities of immunoblot bands were determined using Odyssey infrared imaging system (LI-COR Bioscience). […]

[3] = target: T1, recombinant human OSR1 (Homo sapiens, UniProt O95747); assay: Radiometric kinase profiling assay; type: biochemical; details: 70 μM ATP
T1 construct: purchased Eurofins Discovery (KinaseProfiler, contractor)
Protocol: (§1) Kinase activity profiles (data not shown) were performed using radiometric assays to measure kinase catalytic activity for PCPZ concentrations ranging 0.1-500 μM in DMSO or CLP257 concentrations ranging 0.1-1000 μM in DMSO, in the presence of 70 μM ATP. Equimolar DMSO concentrations were used as control. Additional information on the kinase profiler assay can be obtained from the contractor's website. (https://www.eurofinsdiscoveryservices.com/cms/cms-content/services/in-vitro-assays/kinases/kinase-profiler).

[4] = target: T2, recombinant human STK39 (SPAK) (Homo sapiens, UniProt Q9UEW8); assay: Radiometric kinase profiling assay; type: biochemical; details: 70 μM ATP
T2 construct: purchased Eurofins Discovery (KinaseProfiler, contractor)
Protocol: as §1

[5] = target: T3, recombinant human WNK1 (Homo sapiens, UniProt Q9H4A3); assay: Radiometric kinase profiling assay; type: biochemical; details: 70 μM ATP
T3 construct: purchased Eurofins Discovery (KinaseProfiler, contractor)
Protocol: as §1

[6] = target: T4, recombinant human WNK3 (Homo sapiens, UniProt Q9BYP7); assay: Radiometric kinase profiling assay; type: biochemical; details: 70 μM ATP
T4 construct: purchased Eurofins Discovery (KinaseProfiler, contractor)
Protocol: as §1

T3 sequence (Q9H4A3 whole entry): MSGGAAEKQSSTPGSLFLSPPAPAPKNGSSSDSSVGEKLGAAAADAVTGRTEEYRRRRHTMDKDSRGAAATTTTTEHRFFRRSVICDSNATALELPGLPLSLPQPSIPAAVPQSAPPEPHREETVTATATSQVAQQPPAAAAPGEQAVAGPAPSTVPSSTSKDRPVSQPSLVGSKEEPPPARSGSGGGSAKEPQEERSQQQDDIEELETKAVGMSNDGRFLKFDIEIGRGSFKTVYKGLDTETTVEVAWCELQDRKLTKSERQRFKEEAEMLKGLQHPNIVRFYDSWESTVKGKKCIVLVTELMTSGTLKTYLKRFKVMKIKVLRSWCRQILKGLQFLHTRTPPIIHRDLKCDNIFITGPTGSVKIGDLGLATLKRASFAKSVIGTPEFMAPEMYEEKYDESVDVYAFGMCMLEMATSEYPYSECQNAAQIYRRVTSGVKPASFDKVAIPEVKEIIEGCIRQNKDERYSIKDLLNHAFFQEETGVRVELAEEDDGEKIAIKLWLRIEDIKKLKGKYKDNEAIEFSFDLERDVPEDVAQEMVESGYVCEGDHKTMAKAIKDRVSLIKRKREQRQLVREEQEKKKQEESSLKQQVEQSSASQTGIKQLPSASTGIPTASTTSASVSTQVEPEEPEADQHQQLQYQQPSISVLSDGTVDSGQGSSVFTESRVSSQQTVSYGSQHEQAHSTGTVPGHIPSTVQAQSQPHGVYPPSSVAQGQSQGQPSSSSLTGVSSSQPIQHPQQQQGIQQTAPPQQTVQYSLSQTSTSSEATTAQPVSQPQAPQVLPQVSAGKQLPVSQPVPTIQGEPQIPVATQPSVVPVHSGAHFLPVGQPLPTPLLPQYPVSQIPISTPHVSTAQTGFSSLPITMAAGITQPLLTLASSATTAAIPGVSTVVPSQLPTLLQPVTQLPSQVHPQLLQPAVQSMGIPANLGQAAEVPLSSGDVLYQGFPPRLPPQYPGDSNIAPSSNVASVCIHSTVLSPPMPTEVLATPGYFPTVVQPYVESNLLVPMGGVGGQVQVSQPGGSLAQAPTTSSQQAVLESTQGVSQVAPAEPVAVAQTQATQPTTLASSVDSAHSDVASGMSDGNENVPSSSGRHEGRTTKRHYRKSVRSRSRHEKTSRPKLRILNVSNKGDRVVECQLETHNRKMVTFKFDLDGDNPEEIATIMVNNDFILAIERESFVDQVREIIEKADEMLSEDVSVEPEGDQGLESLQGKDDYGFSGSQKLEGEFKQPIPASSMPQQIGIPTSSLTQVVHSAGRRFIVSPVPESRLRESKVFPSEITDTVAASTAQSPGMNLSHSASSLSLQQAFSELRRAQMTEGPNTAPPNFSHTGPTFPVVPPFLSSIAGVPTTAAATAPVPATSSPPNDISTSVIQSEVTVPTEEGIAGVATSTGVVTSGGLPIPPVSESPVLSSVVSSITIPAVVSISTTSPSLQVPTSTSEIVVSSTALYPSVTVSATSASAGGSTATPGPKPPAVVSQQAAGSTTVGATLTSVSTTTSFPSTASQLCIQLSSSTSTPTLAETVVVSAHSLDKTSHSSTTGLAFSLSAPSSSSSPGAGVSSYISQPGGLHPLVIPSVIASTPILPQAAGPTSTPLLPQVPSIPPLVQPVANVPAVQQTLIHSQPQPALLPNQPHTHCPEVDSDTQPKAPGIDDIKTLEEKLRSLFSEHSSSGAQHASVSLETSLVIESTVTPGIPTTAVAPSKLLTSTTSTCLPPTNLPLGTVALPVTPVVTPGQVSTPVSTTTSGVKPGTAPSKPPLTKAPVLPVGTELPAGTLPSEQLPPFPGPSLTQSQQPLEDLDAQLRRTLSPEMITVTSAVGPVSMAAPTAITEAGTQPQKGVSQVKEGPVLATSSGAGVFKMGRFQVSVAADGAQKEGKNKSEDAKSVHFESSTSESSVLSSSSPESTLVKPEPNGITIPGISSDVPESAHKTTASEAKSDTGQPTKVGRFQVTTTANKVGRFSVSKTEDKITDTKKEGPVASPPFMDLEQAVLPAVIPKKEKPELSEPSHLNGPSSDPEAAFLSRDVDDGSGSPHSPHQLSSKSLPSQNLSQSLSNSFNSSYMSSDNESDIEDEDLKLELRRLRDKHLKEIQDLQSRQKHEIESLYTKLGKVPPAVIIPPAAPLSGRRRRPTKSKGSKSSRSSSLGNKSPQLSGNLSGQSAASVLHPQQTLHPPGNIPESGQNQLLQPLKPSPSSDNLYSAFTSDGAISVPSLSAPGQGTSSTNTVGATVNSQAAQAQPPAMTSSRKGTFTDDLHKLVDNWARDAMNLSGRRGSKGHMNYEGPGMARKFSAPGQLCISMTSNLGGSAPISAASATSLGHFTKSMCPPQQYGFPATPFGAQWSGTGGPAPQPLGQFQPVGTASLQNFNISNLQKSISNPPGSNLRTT
T4 sequence (Q9BYP7 whole entry): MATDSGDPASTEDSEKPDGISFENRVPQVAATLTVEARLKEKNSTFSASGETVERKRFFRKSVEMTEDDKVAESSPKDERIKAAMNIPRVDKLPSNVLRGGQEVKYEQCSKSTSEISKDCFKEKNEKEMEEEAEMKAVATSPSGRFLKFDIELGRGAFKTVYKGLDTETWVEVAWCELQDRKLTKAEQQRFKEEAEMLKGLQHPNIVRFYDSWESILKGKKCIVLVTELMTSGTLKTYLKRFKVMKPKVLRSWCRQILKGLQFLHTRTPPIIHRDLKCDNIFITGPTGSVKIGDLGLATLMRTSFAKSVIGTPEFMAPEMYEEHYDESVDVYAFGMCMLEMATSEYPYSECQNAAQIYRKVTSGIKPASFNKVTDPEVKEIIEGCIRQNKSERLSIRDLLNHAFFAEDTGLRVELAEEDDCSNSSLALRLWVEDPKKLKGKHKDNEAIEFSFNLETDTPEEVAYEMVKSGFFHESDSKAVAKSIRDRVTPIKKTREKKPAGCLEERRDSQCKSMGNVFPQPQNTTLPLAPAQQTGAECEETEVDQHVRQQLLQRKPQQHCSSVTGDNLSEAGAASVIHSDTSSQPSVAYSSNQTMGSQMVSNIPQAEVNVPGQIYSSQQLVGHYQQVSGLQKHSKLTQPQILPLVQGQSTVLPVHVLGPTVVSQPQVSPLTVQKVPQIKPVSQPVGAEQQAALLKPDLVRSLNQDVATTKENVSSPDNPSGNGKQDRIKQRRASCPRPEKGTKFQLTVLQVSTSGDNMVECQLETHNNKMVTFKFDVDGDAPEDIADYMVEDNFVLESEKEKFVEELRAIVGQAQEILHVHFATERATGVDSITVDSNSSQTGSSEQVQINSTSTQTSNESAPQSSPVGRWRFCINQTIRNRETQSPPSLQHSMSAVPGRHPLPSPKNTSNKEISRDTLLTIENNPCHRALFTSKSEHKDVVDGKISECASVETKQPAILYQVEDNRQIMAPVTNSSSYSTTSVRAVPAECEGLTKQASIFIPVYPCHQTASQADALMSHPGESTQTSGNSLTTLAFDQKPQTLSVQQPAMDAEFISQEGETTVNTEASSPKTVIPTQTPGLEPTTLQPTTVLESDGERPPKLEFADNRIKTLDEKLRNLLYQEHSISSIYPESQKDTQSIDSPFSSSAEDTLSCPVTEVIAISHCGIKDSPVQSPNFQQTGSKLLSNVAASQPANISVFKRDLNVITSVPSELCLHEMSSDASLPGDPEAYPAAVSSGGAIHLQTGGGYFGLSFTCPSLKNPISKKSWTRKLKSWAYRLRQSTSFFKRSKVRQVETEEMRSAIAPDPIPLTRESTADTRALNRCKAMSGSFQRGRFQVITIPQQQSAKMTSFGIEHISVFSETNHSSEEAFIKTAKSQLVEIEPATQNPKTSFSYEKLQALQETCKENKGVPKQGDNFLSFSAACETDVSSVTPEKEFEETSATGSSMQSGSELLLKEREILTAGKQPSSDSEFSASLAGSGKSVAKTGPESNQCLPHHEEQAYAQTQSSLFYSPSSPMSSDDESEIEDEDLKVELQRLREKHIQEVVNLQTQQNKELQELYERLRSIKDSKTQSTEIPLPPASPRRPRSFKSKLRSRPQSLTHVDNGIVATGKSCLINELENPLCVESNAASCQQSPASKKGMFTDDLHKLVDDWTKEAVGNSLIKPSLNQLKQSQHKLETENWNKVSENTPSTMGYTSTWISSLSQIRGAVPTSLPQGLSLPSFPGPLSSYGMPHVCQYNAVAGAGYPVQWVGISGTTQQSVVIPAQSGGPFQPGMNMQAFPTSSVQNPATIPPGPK
T1 sequence (O95747 whole entry): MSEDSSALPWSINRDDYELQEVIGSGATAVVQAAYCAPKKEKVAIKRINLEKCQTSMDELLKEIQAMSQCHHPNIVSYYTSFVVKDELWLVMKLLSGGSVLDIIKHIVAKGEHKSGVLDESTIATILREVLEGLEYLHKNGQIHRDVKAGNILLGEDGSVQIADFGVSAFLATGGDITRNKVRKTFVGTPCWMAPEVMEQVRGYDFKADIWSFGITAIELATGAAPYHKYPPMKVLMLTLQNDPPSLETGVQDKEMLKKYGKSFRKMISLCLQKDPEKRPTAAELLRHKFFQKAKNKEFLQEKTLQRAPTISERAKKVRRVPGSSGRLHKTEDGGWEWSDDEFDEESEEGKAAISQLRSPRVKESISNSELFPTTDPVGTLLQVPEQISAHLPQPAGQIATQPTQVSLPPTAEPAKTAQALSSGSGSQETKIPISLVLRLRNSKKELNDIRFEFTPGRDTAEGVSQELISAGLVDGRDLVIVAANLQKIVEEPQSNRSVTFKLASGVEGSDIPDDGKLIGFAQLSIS

Row | inhibition of OSR1 kinase activity ([3]; PCPZ 0.1-500 μM) | inhibition of SPAK kinase activity ([4]; PCPZ 0.1-500 μM) | inhibition of WNK1 kinase activity ([5]; PCPZ 0.1-500 μM) | inhibition of WNK3 kinase activity ([6]; PCPZ 0.1-500 μM) | inhibition of OSR1 kinase activity ([3]; CLP257 0.1-1000 μM) | inhibition of SPAK kinase activity ([4]; CLP257 0.1-1000 μM) | inhibition of WNK1 kinase activity ([5]; CLP257 0.1-1000 μM) | inhibition of WNK3 kinase activity ([6]; CLP257 0.1-1000 μM) | Structure (SMILES) | mIPSCs decay time constant ([1]; 10 μM PCPZ, before drug 10.66±0.80) [ms] | mIPSCs amplitude ([1]; 10 μM PCPZ, before drug 42.49±2.54) [pA] | change of SPAK phosphorylation (S373 residue) ([2]; 10 μM PCPZ, 2 h) | mIPSCs decay time constant ([1]; 100 μM CLP257, before drug 12.36±0.75) [ms] | mIPSCs amplitude ([1]; 100 μM CLP257, before drug 42.32±3.40) [pA] | change of SPAK phosphorylation (S373 residue) ([2]; 100 μM CLP257, 2 h) | change of total expression of SPAK ([2]; 100 μM CLP257, 2 h) [%]
1 | no direct inhibitory effect | no direct inhibitory effect | no direct inhibitory effect | no direct inhibitory effect |  |  |  |  | CN1CCN(CCCN2c3ccccc3Sc3ccc(Cl)cc32)CC1 [PCPZ, prochlorperazine] | 10.17 ± 0.71 | 42.92±2.55 | +36.90±48.40% |  |  |  | 
2 |  |  |  |  | no direct inhibitory effect | no direct inhibitory effect | no direct inhibitory effect | no direct inhibitory effect | O=C1N=C(N2CCCCN2)S/C1=C\c1ccc(F)cc1O [CLP257, (5Z)-5-[(4-Fluoro-2-hydroxyphenyl)methylene]-2-(tetrahydro-1-(2H)-pyridazinyl)-4(5H)-thiazolone] |  |  |  | 12.53 ± 1.01 | 43.77±2.86 | +33.30±24.00% | −5.97±17.4
